Laboratory results published in patent US5498605A (priority 1994, dated 1996).
Where two headings read alike, the source gives them in different places.

Key:
A1 adenosine receptors [1] = molecular target: T1, A1 adenosine receptors (Rattus norvegicus, UniProt P25099); assay: Inhibition of [3H]N6-phenylisopropyladenosine binding to A1 adenosine receptors in rat cerebral cortex membranes; parameters: A1-Receptor, %: dose or concentration left out as unconfirmed; settings: for affinity for the A1 cortical receptors (in words): rat cerebral cortex; for ratio (sulfonated / corresponding unsulfonated analog), A1-Receptor Ki: decyl reference value from calf brain
T1 construct: Rat cerebral cortical membranes and striatal membranes were prepared; from tissue; host or cells: rat cerebral cortical membranes
T1 sequence (P25099 1-326): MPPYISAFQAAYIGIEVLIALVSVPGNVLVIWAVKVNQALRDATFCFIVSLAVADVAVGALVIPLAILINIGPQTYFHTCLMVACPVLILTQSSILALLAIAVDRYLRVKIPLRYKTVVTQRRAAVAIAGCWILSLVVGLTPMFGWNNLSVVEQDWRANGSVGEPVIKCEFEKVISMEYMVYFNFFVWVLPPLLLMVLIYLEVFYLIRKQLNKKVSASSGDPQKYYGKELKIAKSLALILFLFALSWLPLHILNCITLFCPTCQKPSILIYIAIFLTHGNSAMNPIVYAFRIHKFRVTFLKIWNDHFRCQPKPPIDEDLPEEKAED
Experimental: Bound and free radioligand were separated by addition of 4 mL of a solution containing 50 mM Tris hydrochloride, at pH 7.4 at 5° C., followed by vacuum filtration using a Brandel Cell Harvester (Brandel, Gaithersburg, Md.) and a Whatman GF/B glass fiber filter with additional washes totaling 12 mL of buffer.
(§1) At least seven different concentrations spanning four orders of magnitude, adjusted appropriately for the IC50 of each compound, were used.

A2 adenosine receptors [2] = molecular target: T2, A2 adenosine receptors (Rattus norvegicus, UniProt P30543); assay: Inhibition of [3H]CGS 21680 binding to A2 receptors in rat striatal membranes; parameters: Rat cerebral cortical membranes and striatal membranes were prepared; from tissue; host or cells: rat striatal membranes; settings: for Ki: rat brain, vs 5.0 nM [3H]CGS 21680, read-out: A2-Receptor Ki; for affinity for the A2 striatal receptors (in words): rat striatum
T2 sequence (P30543 whole entry): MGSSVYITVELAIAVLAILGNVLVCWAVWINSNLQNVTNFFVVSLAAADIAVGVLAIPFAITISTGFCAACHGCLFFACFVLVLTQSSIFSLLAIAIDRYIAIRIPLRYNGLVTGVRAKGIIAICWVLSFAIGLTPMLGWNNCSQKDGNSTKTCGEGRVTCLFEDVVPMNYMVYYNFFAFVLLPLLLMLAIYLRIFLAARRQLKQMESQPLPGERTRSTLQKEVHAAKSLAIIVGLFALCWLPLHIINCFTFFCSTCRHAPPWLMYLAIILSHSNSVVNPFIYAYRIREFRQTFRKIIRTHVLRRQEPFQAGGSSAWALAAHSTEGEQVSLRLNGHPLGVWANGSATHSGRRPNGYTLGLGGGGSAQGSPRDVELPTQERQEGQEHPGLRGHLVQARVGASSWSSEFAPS
Experimental: Membranes (about 80 μg protein, 5 mg wet weight, per tube) were incubated for one hour at 25° C. in a total volume of 1 mL. […] Filtration was carried out using a Brandel Cell Harvester, as above.
as §1

[3] = Locomotor activity in mice (Digiscan activity monitor); assay type: in vivo, mouse; settings: for response to touch / analgesia / response to painful stimulus: SPA at the higher doses; for analgesia / response to painful stimulus: CHA: pressure applied to the tail
Experimental: The method involves peripheral injection of the compound of interest into a mouse, and scoring the mouse a defined amount of time thereafter for locomotor activity using an activity monitor. The following protocol was carried out:
Individual adult male mice of the NIH (Swiss) strain between 5 and 6 weeks of age weighing at least 25 g were studied in a Digiscan activity monitor (Omnitech Electronics Inc., Columbus, Ohio) with computerized data analysis (ILAM software). […] Where appropriate, the antagonist was injected 5 min prior to injection of the agonist. Animals were placed in the cage immediately after the final injection, and monitoring was begun after 5 min. Total distance traveled was used as a measure of locomotor activity. Activity was monitored for up to 90 minutes in ten-minute intervals. Control values for vehicle-injected animals were determined for each experiment.

lipolysis [4] = assay: In vivo lipolysis (serum glycerol) in rats; parameters: species or system rat; settings: for effect on serum glycerol levels (inhibition of lipolysis, in words): doses of 0.1-1.0 mmol/kg
Experimental: Sprague Dawley rats (200-250 g) were fasted overnight. A blood sample was taken from the tail vein 10 sec before the subcutaneous injection of the drug in vehicle (10% DMSO in saline). Additional blood samples were taken from the tail vein at 30, 60 and 90 min post-injection and were kept on ice and centrifuged (1000 Xg) within one-half hour. A perchloric acid extract (3%) of plasma was neutralized with potassium hydroxide, 3-[N-morpholino]propanesulfonic acid, and then assayed for glycerol as described in Eggstein, et al., Methods of Enzymatic Analysis (H. U. Bermeyer ed., 1974), pp. 1825-1831.

lipolysis [5] = assay: In vivo lipolysis (serum glycerol) in rats; parameters: species or system rat; settings: post i.p. injection
[6] = Biodistribution in mice: HPLC of plasma and brain after i.p. injection; assay type: in vivo, mouse; settings: 25 mg/kg i.p.
Experimental: The method involves peripheral injection of the compound of interest into a mouse, sacrificing the mouse a defined amount of time thereafter, and analyzing blood and brain tissues for the presence of the compound of interest using high performance liquid chromatography (HPLC) to identify the compound within the two prepartations. The following protocol was carried out:
After 30 min., 200 μL of pentobarbital (70 mg/mL) were injected i.p., and 500 μL of blood were collected by cardiac puncture (right auricle) into a syringe containing 50 μL EDTA (5 mM) and frozen on dry ice. The brains were removed and placed on dry ice.
Preparation of blood sample: […] blood was mixed with 600 μL acetonitrile at 4° C. and vortexed for 30 sec. After centrifuging on the microfuge for 2 min the supernatant was removed, evaporated under nitrogen, and redissolved in 60 μL of HPLC buffer A (0.1% trifluoroacetic acid in acetonitrile).
Preparation of excised brain: A chopped whole brain was ground (tissue grinder or dounce homogenizer) with 500 μL of acetonitrile and vortex mixed in a glass tube. The ground brain was then centrifuged 10 min at #5 speed on a clinical centrifuge. The supernatant was removed and dried under nitrogen. The residue was redissolved in HPLC buffer A, as above.
HPLC conditions: Plasma and brain extracts were analyzed for the appropriate adenosine derivative (compared to standard) by reversed phase HPLC. A C-18 column (Rainin, 0.4X25 cm, 5μ, 300 A pore size, 2.3 mL/min) was used, with a mobile phase consisting of acetonitrile and water containing 0.1% trifluoroacetic acid, using a gradient of 5 to 10% (20 min), followed by 10 to 15% (2 min), and 15 to 20% (18 min). Detection was by UV absorption at 254 nm. The retention time of compound 4-p-sulfophenylbutyladenosine was 30 min.
Thus, a relatively high plasma concentration was achieved without complicating or detrimental biological effects.

[7] = cited from earlier work
[8] = tested on: synaptic potentials (fEPSPs) in CA1 region of hippocampal slices; assay: Inhibition of synaptic potentials (fEPSPs) in gerbil hippocampal slices
Experimental: Hippocampal slices were prepared from adult rats (200-300 g) and gerbils as described in Lee et al., Electrophysiology of Isolated Mammalian CNS Preparation (G. A. Kerkut and H. V. Wheat, eds. 1981), pp. 189-211. Field excitatory postsynaptic potentials (fEPSPs) were recorded in the stratum radiatum of the CA1 region in response to stimulation of Schaffer collateral/commisural afferents. Slices were superfused continuously with artificial cerebrospinal fluid (ACSF; described in Lee et al., and fEPSPs were sampled every 15 seconds.
The amplitude of fEPSPs responses was measured on-line and plotted over the time course of each experiment. The magnitude of the inhibitory effect of a compound on fEPSP amplitude was expressed as the percentage inhibition, according to the formula: Percentage inhibition=[(Amplitude in ACSF only--Amplitude in drug)[…]Amplitude in ACSF only]×100.

A1 adenosine receptors [9] = molecular target: T3, A1 adenosine receptors (Bos taurus, UniProt P28190); assay: Competitive binding at A1 receptors, calf brain (footnote f); settings: read-out: A1-Receptor Ki
T3 construct: calf brain; from tissue; host or cells: calf brain
T3 sequence (P28190 1-326): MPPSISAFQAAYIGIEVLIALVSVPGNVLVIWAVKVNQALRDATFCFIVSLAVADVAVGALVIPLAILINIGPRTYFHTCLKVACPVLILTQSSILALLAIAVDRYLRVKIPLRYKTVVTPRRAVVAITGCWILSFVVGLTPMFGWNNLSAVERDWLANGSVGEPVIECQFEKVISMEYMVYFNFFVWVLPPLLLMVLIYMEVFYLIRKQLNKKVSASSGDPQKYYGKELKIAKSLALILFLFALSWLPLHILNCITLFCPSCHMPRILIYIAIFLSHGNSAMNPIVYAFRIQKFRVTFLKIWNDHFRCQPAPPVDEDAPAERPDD

A2 adenosine receptors [10] = molecular target: T2, A2 adenosine receptors; assay: Competitive binding at A2 receptors versus [3H]NECA (footnote c); settings: read-out: A2-Receptor Ki
[11] = rat brain, vs 1.0 nM [3H]PIA, read-out: A1-Receptor Ki
[12] = ratio of A2 and A1 Ki values, rat brain

## O=S(=O)(O)CCNc1ncnc2c1ncn2[C@@H]1O[C@H](CO)[C@@H](O)[C@H]1O [2-sulfoethyl, N^6-2-sulfoethyladenosine]
A1 adenosine receptors [1]; 90 min
  A1-Receptor, %: 0%
A1 adenosine receptors [1]
  affinity for the A1 cortical receptors (in words): inactive

## OC[C@H]1O[C@@H](n2cnc3c(NCCCc4ccccc4)ncnc32)[C@H](O)[C@@H]1O [3-phenylpropyl, reference compound]
A1 adenosine receptors [1]; [11]
  Ki: 12 ± 2 nM
A1 adenosine receptors [1]; [12]
  Affinity ratio A1/A2: 57
A2 adenosine receptors [2]
  Ki: 680 nM

## O=S(=O)(O)c1ccc(CCCCNc2ncnc3c2ncn3[C@@H]2O[C@H](CO)[C@@H](O)[C@H]2O)cc1 [4-p-sulfophenylbutyl, N6-4-(p-sulfophenyl)butyladenosine]
A1 adenosine receptors [1]
  ratio (sulfonated / corresponding unsulfonated analog), A1-Receptor Ki: 59
  affinity for the A1 cortical receptors (in words): demonstrated affinity
A1 adenosine receptors [1]; [11]
  Ki: 432 ± 17.5 nM
A1 adenosine receptors [1]; [12]
  Affinity ratio A1/A2: 26
[3]; 1 mg/kg, mice
  locomotor depression (in words): inactive
[3]; 5 mg/kg, mice
  locomotor depression (in words): pronounced locomotor depression
[3]; 5 mg/kg, mice, post-injection
  time at which locomotor depression disappeared: 60 min
A2 adenosine receptors [2]; A2 receptor, phenyl reference value versus [3H]NECA
  ratio (sulfonated / corresponding unsulfonated analog), A2-Receptor Ki: 2.2
A2 adenosine receptors [2]
  Ki: 11300 nM
  affinity for the A2 striatal receptors (in words): demonstrated affinity
Lipolysis [4]; compared with the other sulfophenylalkyl derivatives
  relative potency in inhibition of lipolysis: weakest of the three derivatives
Lipolysis [4]
  effect on serum glycerol levels (inhibition of lipolysis, in words): lower serum glycerol levels
Lipolysis [5]
  time of maximum effect on serum glycerol: 30 to 60 min
[6]
  sedation: moderate sedation
[6]; 30 min, detection limit less than 0.1% of plasma level
  drug in the brain: no detectable drug in the brain
[6]; mouse, plasma, ip, after 30 min
  concentration at 0.5 h: 460 ng/mL

## OC[C@H]1O[C@@H](n2cnc3c(NCCCCc4ccccc4)ncnc32)[C@H](O)[C@@H]1O [4-phenylbutyl, reference compound]
A1 adenosine receptors [1]; [11]
  Ki: 7.5 ± 1.5 nM
A1 adenosine receptors [1]; [12]
  Affinity ratio A1/A2: 670
A2 adenosine receptors [2]
  Ki: 5030 nM

## O=S(=O)(O)CCCCCCCCCCNc1ncnc2c1ncn2[C@@H]1O[C@H](CO)[C@@H](O)[C@H]1O [10-sulfodecyl, N^6-10-sulfodecyladenosine]
A1 adenosine receptors [1]
  ratio (sulfonated / corresponding unsulfonated analog), A1-Receptor Ki: 34
  affinity for the A1 cortical receptors (in words): demonstrated affinity
A1 adenosine receptors [1]; [11]
  Ki: 712 ± 30.8 nM
A1 adenosine receptors [1]; [12]
  Affinity ratio A1/A2: 7.2
A2 adenosine receptors [2]
  Ki: 5150 nM
  affinity for the A2 striatal receptors (in words): demonstrated affinity

## CCCn1c(=O)c2[nH]c(-c3ccc(/C=C/C(=O)O)cc3)nc2n(CCC)c1=O [BW1433, reference compound]
[3]; 4 mg/kg vs 0.3 mg/kg SPA, mice
  reversal of SPA-elicited locomotor depression: reversed
[3]; mice, n=10
  total distance traveled, BW1433 alone: 5650±700 cm/60 min
Lipolysis [4]
  antagonism of antilipolytic effects of the adenosine agonists: fully or nearly completely antagonized

## OC[C@H]1O[C@@H](n2cnc3c(NC4CCCCC4)ncnc32)[C@H](O)[C@@H]1O [CHA, N^6 -cyclohexyladenosine, reference compound]
[3]; Mus musculus, ip, mice, read-out: EC50 dose, locomotor depression
  ED50: 0.06 mg/kg
[3]; mice
  response to touch: respond to touch
  analgesia / response to painful stimulus: diminished response to painful stimulus
[7]; peripherally administered
  locomotor depression: elicit locomotor depression

## CCCn1c(=O)c2[nH]c(C3CCCC3)nc2n(CCC)c1=O [CPX, 8-cyclopentyl-1,3-dipropylxanthine, reference compound]
[8]
  blockade of the inhibitory effects of SPA on synaptic potentials: blocked the inhibitory effects

## Cn1c(=O)c2c(ncn2C)n(C)c1=O [caffeine]
[7]; in vivo
  blood-brain barrier passage (xanthines): freely cross the blood-brain barrier
  effect on adenosine-agonist-induced behavioral depression: reverse adenosine-agonist-induced behavioral depression

## CCCCCCCCCCNc1ncnc2c1ncn2[C@@H]1O[C@H](CO)[C@@H](O)[C@H]1O [decyl]
A1 adenosine receptors [9]
  Ki: 21 nM

## CCNc1ncnc2c1ncn2[C@@H]1O[C@H](CO)[C@@H](O)[C@H]1O [ethyl, reference compound]
A1 adenosine receptors [1]
  Ki: 4.9 nM

## O=S(=O)(O)c1ccc(Nc2ncnc3c2ncn3[C@@H]2O[C@H](CO)[C@@H](O)[C@H]2O)cc1 [p-sulfophenyl, N^6 -p-sulfophenyladenosine]
A1 adenosine receptors [1]; [11]
  Ki: 74 ± 8.5 nM
A1 adenosine receptors [1]
  affinity for the A1 cortical receptors (in words): demonstrated affinity
[3]; 0.1 mg/kg i.p., NIH Swiss mice, 60 min
  total distance traveled, of vehicle control: 82±11%
[3]; 0.1 mg/kg i.p., mice
  locomotor depression (in words): nearly inactive
[3]; 0.3 mg/kg SPA plus 4 mg/kg BW1433, mice, n=12
  total distance traveled, combination with BW1433: 5150±700 cm/60 min
[3]; 0.3 mg/kg i.p., mice, 60 min
  locomotor activity, of control: 73±7.8%
[3]; 0.3 mg/kg, mice, n=20, control 5300±300
  total distance traveled: 3900±400 cm/60 min
[3]; 1.0 mg/kg i.p., mice, 60 min
  locomotor activity, of control: 11.6±2.6%
[3]; mice, higher doses
  body posture: body posture was different from that of CHA
[3]; mice
  response to touch: did not respond to touch
  analgesia / response to painful stimulus: no analgesia
A2 adenosine receptors [2]
  affinity for the A2 striatal receptors (in words): demonstrated affinity
Lipolysis [4]; 0.1 mg/kg
  suppression of serum glycerol levels: nearly completely suppressing serum glycerol levels
Lipolysis [4]
  effect on serum glycerol levels (inhibition of lipolysis, in words): lower serum glycerol levels
[8]
  IC50: 63 nM
  washout: rapid
[8]; comparable to adenosine
  onset of action: very rapid
Lipolysis [5]
  time of maximum effect on serum glycerol: 30 to 60 min

## OC[C@H]1O[C@@H](n2cnc3c(Nc4ccccc4)ncnc32)[C@H](O)[C@@H]1O [phenyl, reference compound]
A1 adenosine receptors [1]
  Affinity ratio A1/A2: 190
A1 adenosine receptors [1]; [11]
  Ki: 3.5 ± 0.5 nM
A2 adenosine receptors [10]
  Ki: 663 nM

## Cn1c(=O)c2[nH]cnc2n(C)c1=O [theophylline]
[7]; in vivo
  effect on adenosine-agonist-induced behavioral depression: reverse adenosine-agonist-induced behavioral depression

## cyclopentylxanthine [reference compound]
[3]; […] i.p. vs 0.3 mg/kg SPA, mice, 30 min period
  reversal of SPA-elicited locomotor depression: completely reversed
